Laboratory results as given in the supplement of paper PMC10307832.

Columns and labels:
Assay in all cases: relative viability (nuclei count vs DMSO), 5 days (fraction); higher = more cells survive
[1] = compound: O=c1ncccn1[C@@H]1O[C@H](CO)[C@@H](O)[C@H]1O [Zebularine] + CCNC(=O)c1noc(-c2cc(C(C)C)c(O)cc2O)c1-c1ccc(CN2CCOCC2)cc1 [Luminespib] (partner 0.01 µM)
Method in brief: (§1)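 Lung cancer cell lines in 1536-well plates got either a single drug or a fixed anchor-drug dose together with five library-drug doses (not always all listed) in √10 steps, by pin tool, on the day after seeding. Nuclei were counted after 5 days, and relative viability is the treated-to-vehicle ratio of nuclei counts. Values are medians of duplicate plates.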

[2] = compound: O=c1ncccn1[C@@H]1O[C@H](CO)[C@@H](O)[C@H]1O [Zebularine] + Cc1nc(NC(=O)N2CCC[C@H]2C(N)=O)sc1-c1ccnc(C(C)(C)C(F)(F)F)c1 [Alpelisib] (partner 2 µM)
Method in brief: as §1

[3] = compound: CC(C)CCN1c2nc(Nc3cc(F)c(O)c(F)c3)ncc2N(C)C(=O)C1C [BI-D1870] + N=C(N)NC(=N)NCCc1ccccc1 [Phenformin] (partner 250 µM)
Method in brief: as §1

[4] = compound: CC(C)CCN1c2nc(Nc3cc(F)c(O)c(F)c3)ncc2N(C)C(=O)C1C [BI-D1870] + CC1(C)CCC(c2ccc(Cl)cc2)=C(CN2CCN(c3ccc(C(=O)NS(=O)(=O)c4ccc(N[C@H](CCN5CCOCC5)CSc5ccccc5)c(S(=O)(=O)C(F)(F)F)c4)cc3)CC2)C1 [Navitoclax] (partner 0.5 µM)
Method in brief: as §1

Cell Line | relative viability ([1]; first compound 1 µM) | relative viability ([1]; first compound 3.162 µM) | relative viability ([1]; first compound 10 µM) | relative viability ([1]; first compound 31.62 µM) | relative viability ([1]; first compound 100 µM) | relative viability ([2]; first compound 1 µM) | relative viability ([2]; first compound 3.162 µM) | relative viability ([2]; first compound 10 µM) | relative viability ([2]; first compound 31.62 µM) | relative viability ([2]; first compound 100 µM) | relative viability ([3]; first compound 0.04 µM) | relative viability ([3]; first compound 0.1265 µM) | relative viability ([3]; first compound 0.4 µM) | relative viability ([3]; first compound 1.265 µM) | relative viability ([3]; first compound 4 µM) | relative viability ([4]; first compound 0.04 µM) | relative viability ([4]; first compound 0.1265 µM) | relative viability ([4]; first compound 0.4 µM) | relative viability ([4]; first compound 1.265 µM) | relative viability ([4]; first compound 4 µM)
201T | 1.09 | 1.1 | 0.894 | 1.04 | 0.724 | 1.07 | 1.06 | 0.859 | 0.992 | 0.877 | 0.457 | 0.47 | 0.421 | 0.487 | 0.428 | 1.18 | 1.18 | 1.19 | 1.23 | 1.19
A549 |  |  |  |  |  | 0.923 | 0.658 |  | 0.625 | 0.317 | 0.211 | 0.174 | 0.177 | 0.207 | 0.165 | 1.31 | 1.15 | 1.28 | 1.15 | 0.123
A-427 | 1.01 | 0.856 | 0.53 | 0.383 | 0.261 | 1.08 | 0.993 | 0.785 | 0.412 | 0.237 | 0.41 | 0.308 | 0.306 | 0.379 | 0.347 | 1.1 | 0.958 | 0.922 | 0.997 | 0.999
ABC-1 | 0.476 |  | 0.458 | 0.317 | 0.364 | 1.43 | 1.01 | 0.84 | 0.891 | 0.536 | 0.215 | 0.211 | 0.264 | 0.218 | 0.212 |  |  |  |  | 
BEN | 0.448 | 0.172 | 0.235 | 0.262 | 0.178 | 0.991 | 0.897 | 0.454 | 0.372 | 0.377 | 0.272 | 0.29 | 0.273 | 0.314 | 0.243 | 0.0563 | 0.0674 | 0.0746 | 0.383 | 0.0789
CAL-12T | 0.49 | 0.717 | 0.244 | 0.355 | 0.582 | 1.49 | 1.07 |  | 1.28 | 1.1 | 0.647 | 0.452 | 0.583 | 0.461 | 0.302 | 1.35 | 1.03 | 1.19 | 1.07 | 1.08
COR-L23 | 0.88 | 0.753 | 0.332 | 0.439 | 0.171 | 0.872 | 0.926 | 0.431 | 0.361 | 0.265 | 0.461 | 0.438 | 0.499 | 0.407 | 0.324 | 1.15 | 0.951 | 1.06 | 1.1 | 0.479
COR-L 105 | 0.844 | 0.839 | 0.508 | 1.06 | 0.652 | 1.24 | 0.952 | 0.807 | 0.96 | 1.1 | 0.562 | 0.396 | 0.422 | 0.489 | 0.5 | 0.863 | 0.673 | 0.761 | 0.997 | 0.75
Calu-6 |  |  |  |  |  | 1 | 0.929 | 0.869 | 0.786 | 0.302 |  |  |  |  |  | 0.989 | 0.829 | 0.823 | 0.671 | 0.352
ChaGo-K-1 | 0.657 | 0.508 | 0.212 | 0.221 | 0.217 |  |  |  |  |  | 0.481 | 0.522 | 0.477 | 0.481 | 0.412 | 0.94 | 0.976 | 0.808 | 1.03 | 0.654
EBC-1 |  |  |  |  |  | 0.899 | 0.832 | 0.711 | 1.02 | 0.857 |  |  |  |  |  | 0.433 | 0.424 | 0.367 | 0.194 | 0.134
EKVX | 0.863 | 0.847 | 0.867 | 0.807 | 0.653 | 0.958 | 0.867 |  | 0.963 | 0.802 | 0.243 | 0.214 | 0.23 | 0.21 | 0.18 | 1.01 | 0.909 | 0.889 | 1 | 0.922
EMC-BAC-2 | 1.27 | 1.1 | 0.842 | 1.38 | 1.35 | 0.799 | 0.583 | 0.456 | 0.878 | 0.773 | 0.578 | 0.519 | 0.53 | 0.549 | 0.499 | 1.24 | 1.06 | 1.09 | 1.21 | 1.18
EPLC-272H | 0.247 | 0.238 | 0.237 | 0.406 | 0.154 | 0.975 |  |  | 0.828 | 0.776 | 0.36 | 0.262 | 0.289 | 0.28 | 0.2 | 1.3 | 0.932 | 1.05 | 1.24 | 1.03
H3255 | 1.04 | 0.816 | 0.797 | 0.972 | 0.909 | 0.664 | 0.734 | 0.422 | 0.716 | 0.673 | 0.408 | 0.323 | 0.334 | 0.356 | 0.367 | 0.688 | 0.598 | 0.56 | 0.595 | 0.468
HARA | 0.86 |  |  | 0.833 | 0.445 | 1.01 | 0.804 |  | 0.818 | 0.572 | 0.513 | 0.455 | 0.475 | 0.506 | 0.402 | 1.2 | 1.13 | 1.16 | 1.23 | 1.08
HCC-15 | 0.297 | 0.337 | 0.211 | 0.34 | 0.216 | 1.01 | 0.887 | 0.596 | 0.654 | 0.248 | 0.56 | 0.468 | 0.417 | 0.426 | 0.394 | 0.685 | 0.656 | 0.681 | 0.721 | 0.459
HCC-44 | 1.17 | 1.15 | 0.746 | 0.374 | 0.388 | 0.818 | 0.938 | 0.463 | 0.639 | 0.265 | 0.315 | 0.211 | 0.186 | 0.256 | 0.232 | 1.04 | 0.944 | 0.999 | 1.1 | 0.847
